45 molecules from ChEMBL document CHEMBL1201862, “PubChem BioAssay data set” (2004) can be followed below.

The target in data set [1] is Cytochrome P450 2C19 (Homo sapiens, UniProt P33261). Description: Cytochrome panel assay with activity outcomes. Panel member name: p450-cyp2c19 Compounds with AC50 equal or less than 10 uM are considered active. Type of data set: functional.
Data set [2] has as its target Cytochrome P450 2C9 (Homo sapiens, UniProt P11712).
Data set [3] has as its target T1, Cytochrome P450 1A2 (Homo sapiens, UniProt P05177).
T1 sequence (P05177 whole entry): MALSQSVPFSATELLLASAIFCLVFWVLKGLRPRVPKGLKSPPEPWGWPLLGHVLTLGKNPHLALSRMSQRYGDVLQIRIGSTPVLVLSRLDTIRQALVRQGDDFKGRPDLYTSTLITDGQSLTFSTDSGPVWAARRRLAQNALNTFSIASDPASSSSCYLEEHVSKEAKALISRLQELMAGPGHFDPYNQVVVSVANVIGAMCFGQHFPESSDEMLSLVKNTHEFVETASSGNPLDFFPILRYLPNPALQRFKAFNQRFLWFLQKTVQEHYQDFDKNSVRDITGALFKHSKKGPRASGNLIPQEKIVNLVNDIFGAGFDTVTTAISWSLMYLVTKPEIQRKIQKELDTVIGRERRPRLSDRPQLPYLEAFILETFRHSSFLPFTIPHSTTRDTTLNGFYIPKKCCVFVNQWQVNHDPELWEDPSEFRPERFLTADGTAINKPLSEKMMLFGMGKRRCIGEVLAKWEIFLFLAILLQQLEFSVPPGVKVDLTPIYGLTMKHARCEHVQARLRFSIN

The subject of data set [4] is INS1. As to the kind of experiment: INS-1E survival protection against cytokine death – cell-based, luminescence, retest, dose response (AID 449756).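 Further: cell death triggered by IL-1 beta plus TNF-alpha plus IFN-gamma mixture; protective hits raise ATP signal compared with cytokine alone wells.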 In kind it is functional. As to conditions: Rattus norvegicus.
Data set [5] addresses Cytochrome P450 3A4 (Homo sapiens, UniProt P08684).
In data set [6] the target is T2, Protein RecA (Mycobacterium tuberculosis, UniProt P9WHJ3).
T2 sequence (P9WHJ3 whole entry): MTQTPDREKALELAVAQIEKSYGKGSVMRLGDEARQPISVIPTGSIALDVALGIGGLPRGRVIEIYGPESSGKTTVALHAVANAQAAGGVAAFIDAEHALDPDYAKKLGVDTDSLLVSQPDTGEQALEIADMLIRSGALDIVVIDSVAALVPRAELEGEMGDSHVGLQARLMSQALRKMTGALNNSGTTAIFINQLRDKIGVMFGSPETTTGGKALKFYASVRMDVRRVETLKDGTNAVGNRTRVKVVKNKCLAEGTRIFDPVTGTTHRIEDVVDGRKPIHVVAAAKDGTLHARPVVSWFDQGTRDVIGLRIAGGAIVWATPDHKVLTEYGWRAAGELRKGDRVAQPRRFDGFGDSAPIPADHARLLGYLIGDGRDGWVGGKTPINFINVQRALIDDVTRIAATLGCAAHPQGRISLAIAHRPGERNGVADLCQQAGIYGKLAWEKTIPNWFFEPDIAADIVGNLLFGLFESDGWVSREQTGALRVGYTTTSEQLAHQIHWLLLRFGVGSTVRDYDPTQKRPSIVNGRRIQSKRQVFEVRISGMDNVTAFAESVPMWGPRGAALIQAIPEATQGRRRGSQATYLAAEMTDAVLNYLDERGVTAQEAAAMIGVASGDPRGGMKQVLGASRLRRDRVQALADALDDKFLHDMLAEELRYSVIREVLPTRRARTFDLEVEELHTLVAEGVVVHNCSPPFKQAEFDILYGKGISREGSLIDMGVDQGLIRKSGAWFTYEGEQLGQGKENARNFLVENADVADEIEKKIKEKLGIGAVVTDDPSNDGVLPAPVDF
Description: Fluorescence Cell-Free Homogeneous Dose Retest to Identify Inhibitors of RecA-Intein Splicing Activity. [Related pubchem assays (depositor defined):AID2097, AID2223, AID489010, AID492950]. In kind it is functional.

Calls of active or inactive are those of the source.

Cytochrome P450 2C9, sequence (P11712 whole entry): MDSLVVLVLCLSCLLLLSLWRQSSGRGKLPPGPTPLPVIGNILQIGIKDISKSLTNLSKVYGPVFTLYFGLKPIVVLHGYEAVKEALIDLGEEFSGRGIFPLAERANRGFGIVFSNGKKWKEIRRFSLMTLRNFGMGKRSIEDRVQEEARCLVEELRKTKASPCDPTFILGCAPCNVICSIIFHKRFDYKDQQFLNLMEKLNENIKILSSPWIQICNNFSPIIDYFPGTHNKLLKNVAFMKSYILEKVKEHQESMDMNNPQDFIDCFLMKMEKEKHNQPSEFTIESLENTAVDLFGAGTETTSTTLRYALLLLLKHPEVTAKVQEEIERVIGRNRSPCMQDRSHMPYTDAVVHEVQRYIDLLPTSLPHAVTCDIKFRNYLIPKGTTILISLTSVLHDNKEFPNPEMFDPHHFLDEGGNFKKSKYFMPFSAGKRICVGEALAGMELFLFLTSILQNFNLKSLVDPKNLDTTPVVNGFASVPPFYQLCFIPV
Cytochrome P450 3A4, sequence (P08684 whole entry): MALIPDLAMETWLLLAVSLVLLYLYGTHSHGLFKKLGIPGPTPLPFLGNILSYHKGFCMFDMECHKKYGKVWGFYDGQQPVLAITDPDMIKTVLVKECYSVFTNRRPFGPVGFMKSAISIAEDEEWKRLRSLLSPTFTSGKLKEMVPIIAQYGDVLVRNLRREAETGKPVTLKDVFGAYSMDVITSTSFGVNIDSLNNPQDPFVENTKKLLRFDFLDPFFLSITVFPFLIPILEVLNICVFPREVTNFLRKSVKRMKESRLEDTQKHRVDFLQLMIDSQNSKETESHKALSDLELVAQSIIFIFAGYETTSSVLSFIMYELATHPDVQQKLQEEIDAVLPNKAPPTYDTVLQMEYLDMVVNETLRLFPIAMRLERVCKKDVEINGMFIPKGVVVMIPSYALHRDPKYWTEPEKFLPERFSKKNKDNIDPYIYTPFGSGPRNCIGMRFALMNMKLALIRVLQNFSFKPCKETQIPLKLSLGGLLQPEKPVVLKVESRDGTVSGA
Cytochrome P450 2C19, sequence (P33261 whole entry): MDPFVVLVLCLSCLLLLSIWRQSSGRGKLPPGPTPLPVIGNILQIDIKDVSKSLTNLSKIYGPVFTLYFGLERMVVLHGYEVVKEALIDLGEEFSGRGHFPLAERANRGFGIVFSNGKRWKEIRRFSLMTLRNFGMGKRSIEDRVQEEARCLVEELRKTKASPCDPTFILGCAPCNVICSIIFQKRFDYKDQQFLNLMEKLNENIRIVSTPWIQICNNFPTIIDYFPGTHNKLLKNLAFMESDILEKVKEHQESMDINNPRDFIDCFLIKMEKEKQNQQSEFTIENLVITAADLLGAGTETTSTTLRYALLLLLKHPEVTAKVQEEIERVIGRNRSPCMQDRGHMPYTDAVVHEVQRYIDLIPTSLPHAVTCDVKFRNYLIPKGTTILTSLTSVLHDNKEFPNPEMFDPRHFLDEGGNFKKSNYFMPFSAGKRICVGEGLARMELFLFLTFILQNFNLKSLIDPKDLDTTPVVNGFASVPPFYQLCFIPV

Regarding `Cc1nnc(S)n1/N=C/c1ccccc1OCc1ccc(Cl)cc1`, the AC50 in data set [1] (read-out: AC50) is 11.2 µM (inconclusive).
Take `CC(C)(C)NC[C@@H](O)COc1ccccc1C1CCCC1`: the AC50 in data set [2] is 12.6 µM (inconclusive); in data set [3], 10 µM (inconclusive).
Take `COc1ccc(Oc2ncc3nc(-c4ccc(Cl)cc4)c(=O)n(C[C@H]4CCCO4)c3n2)cc1`: the AC50 in data set [1] (read-out: AC50) is 25.1 µM (inconclusive).
`N#Cc1ccc(-c2csc(NNC(=O)c3ccccc3)n2)cc1`: the AC50 in data set [4] was > 260 µM (inactive).
Turning to `C/C(=N/NC(=O)CN(c1ccccc1)S(=O)(=O)c1ccccc1)c1ccccc1O`, the AC50 in data set [4] was 2.01 µM (active).
In the case of `Cc1cccc(CNc2ccc(S(=O)(=O)N3CCCCC3)cc2)c1`, the AC50 in data set [4] was 27.2 µM (active).
As for `CCOC(=O)c1cc(NC(=O)c2ccc(C)cc2)c(=O)oc1-c1ccccc1`, the figures for the AC50 in data set [5] and in data set [1] (read-out: AC50) were 28.2 µM (inconclusive) and 2.82 µM (inconclusive), respectively.
With `Cc1cccc(-c2c3c(=O)n(C)c(=O)n(C)c3cn2C2CCCCC2)c1`, in data set [1], the concentration at half-maximal activity (AC50) entry is “inconclusive”.
Regarding `CN(C)C(=O)c1ccc(-c2ccc3ncnc(NCCN4CCOCC4)c3c2)cc1`, the AC50 is 15.8 µM (inconclusive) in data set [5] and 25.1 µM (inconclusive) in data set [3].
In the case of `COCCCNC(=S)N/N=C/c1cccc(OC)c1O`, in data set [4], the AC50 is 2.44 µM (active).
As for `COc1cc2c(C(=O)NCc3ccc(C)o3)cn(CC(C)C)c(=O)c2cc1OC`, the AC50 was 10 µM (inconclusive) in data set [2] and 1.58 µM (inconclusive) in data set [3].
As to `Cc1ccc2[nH]c3nc(CCCn4ccnc4-c4ccccc4)nnc3c2c1`, the half-maximal activity concentration (AC50) in data set [5] is 3.16 µM (inconclusive); in data set [1] (read-out: AC50), 2.51 µM (inconclusive).
Turning to `CC(C)(CS)C(=O)N1CCC[C@H]1C(=O)O`, the AC50 in data set [1] (read-out: AC50) is 15.8 µM (inconclusive).
On to `COc1ccc(-[n+]2c(-c3ccc(Cl)cc3)cn3c2CCCCC3)cc1`, for which the AC50 in data set [4] is 1.44 µM (active).
On to `Clc1ccc(-c2nnc(-c3ccc(Br)cc3)c(N3CCSCC3)n2)cc1`, for which the AC50 was 10 µM (inconclusive) in data set [2] and 11.2 µM (inconclusive) in data set [1] (read-out: AC50).
Take `Cc1ccc(N(Cc2cc(=O)[nH]c3ccccc23)C(=O)CCl)cc1`: the EC50 in data set [6] is > 380 µM (inconclusive).
Consider `O=C(NCc1nc2ccccc2[nH]1)[C@H]1C[C@@H]1[C@H](NP(=O)(c1ccccc1)c1ccccc1)c1ccccc1`, for which the AC50 was 0.794 µM (inconclusive) in data set [5], 39.8 µM (inconclusive) in data set [1] (read-out: AC50) and 15.8 µM (inconclusive) in data set [3].
With `O=C(Nc1ccc2ccccc2c1)c1onc2c1CCCC2`, the AC50 in data set [1] (read-out: AC50) is 15.8 µM (inconclusive).
On to `Cc1ccc(-n2ncc(N(C)C)c(Cl)c2=O)cc1`, for which the AC50 in data set [5] was 28.2 µM (inconclusive); in data set [3], 14.1 µM (inconclusive).
For `CCCCN1C(=O)/C(=C\c2ccco2)C(=O)N(CCc2ccccc2)C1=O` the same measures were 12.6 µM (inconclusive) and 28.2 µM (inconclusive).
For `CCCCCCc1ccc(N2C[C@H](Cc3ccccc3)[C@@H](CC(=O)NCc3ccc(OC)cc3)C2=O)cc1`, the AC50 in data set [4] was 7.78 µM (active).
For the molecule `C/C(Cl)=C/CSc1nnc2n(N)c(=O)c3ccccc3n12`, the figures for the AC50 in data set [2] and in data set [1] (read-out: AC50) were 22.4 µM (inconclusive) and 25.1 µM (inconclusive), respectively.
`CCC1(O)c2ccccc2-c2ncccc21` (configuration not stated): the AC50 in data set [1] (read-out: AC50) was 39.8 µM (inconclusive).
Consider `COc1cnc(-c2ccccn2)nc1Sc1c(Cl)cccc1Cl`, for which the half-maximal activity concentration (AC50) in data set [2] is 15.8 µM (inconclusive); in data set [1] (read-out: AC50), 8.91 µM (inconclusive); in data set [3] it was 2.82 µM (inconclusive).
With `O=C1[C@@H]2[C@H]3[C@H](O)[C@H](O)C/C(=N/OC[C@@H](O)COCc4ccco4)[C@H]3CC[C@H]2C(=O)N1c1ccc(F)cc1F`, the AC50 in data set [5] was 3.16 µM (inconclusive); in data set [1], “inconclusive”.
Consider `Cc1cc(C)nc(NN2C(=O)/C(=C/c3ccccc3)SC2=S)n1`, for which, in data set [1], the AC50 result is “inconclusive”.
Consider `CN1C(=O)C(CC(=O)Nc2ccc(F)cc2)N(CCCc2ccccc2)C1=S` (configuration not stated), for which the AC50 in data set [2] is 2.82 µM (inconclusive); in data set [5] it was 22.4 µM (inconclusive); in data set [1] (read-out: AC50) it was 1.78 µM (inconclusive); in data set [3], 25.1 µM (inconclusive).
On to `O=[N+]([O-])c1ccc(N2CCN(CCOc3nonc3-c3ccccc3)CC2)c(Cl)c1`, for which the AC50 in data set [4] is 4.8 µM (active); in data set [5], 14.1 µM (inconclusive).
In the case of `Cc1noc(C)c1C(=O)N1CCC[C@@]2(CCN(Cc3cc(C(F)(F)F)cc(C(F)(F)F)c3)C2)C1`, the AC50 is 7.94 µM (inconclusive) in data set [5] and “inconclusive” in data set [1].
Turning to `CCO/C=C1/C(=O)N(C)C(=O)c2cc(OC)ccc21`, the EC50 in data set [6] was > 380 µM (inactive).
Regarding `COc1ccc(C(Cl)=C(c2ccc(OC)cc2)c2ccc(OC)cc2)cc1` [CHLOROTRIANISENE], the AC50 in data set [1] (read-out: AC50) was 0.1 µM (inconclusive).
Turning to `Clc1ccc(C(c2ccc(Cl)cc2)[n+]2ccn(C[C@@H](OCc3ccc(Cl)cc3Cl)c3ccc(Cl)cc3Cl)c2)cc1`, the AC50 in data set [1] (read-out: AC50) is 25.1 µM (inconclusive).
Take `O=C(NCCO)c1cc2c(s1)CCC2`: the AC50 was 12.6 µM (inconclusive) in data set [2], 5.01 µM (inconclusive) in data set [1] (read-out: AC50) and 14.1 µM (inconclusive) in data set [3].
Regarding `COc1ccc(Nc2cc(=O)n(C3CCCCC3)c(=O)[nH]2)c(OC)c1`, the AC50 in data set [2] was 25.1 µM (inconclusive); in data set [3], 31.6 µM (inconclusive).
For the molecule `COC(=O)c1ccc(NC(C)=O)o1`, the figures for the AC50 in data set [1] (read-out: AC50) and in data set [3] were 39.8 µM (inconclusive) and 22.4 µM (inconclusive), respectively.
For the molecule `COCCCn1nnnc1SCC(=O)N1CCCC1`, the concentration at half-maximal activity (AC50) was 0.0126 µM (inconclusive) in data set [2] and 25.1 µM (inconclusive) in data set [1] (read-out: AC50).
For the molecule `COc1ccc(Br)cc1CN(C)CC(=O)NCc1ccc(F)cc1`, in data set [4], the AC50 was 114 µM (active).
Consider `CCc1ccc(C(=O)N2CCC(c3nc4ccccc4s3)CC2)cc1`, for which the AC50 in data set [5] was 39.8 µM (inconclusive); in data set [3], 17.8 µM (inconclusive).
In the case of `COC(=O)[C@@]1(Cc2ccc(OC)cc2)[C@H]2c3cc(C(=O)N(C)C)n(Cc4ccc(C(F)(F)F)nc4)c3C[C@H]2CN1C(=O)c1ccccc1`, the AC50 in data set [2] and in data set [1] (read-out: AC50) was 39.8 µM (inconclusive) in each case.
With `CNCCC=C1c2ccccc2C=Cc2ccccc21`, the values for the AC50 in data set [5] and in data set [3] were 12.6 µM (inconclusive) and 6.31 µM (inconclusive), respectively.
The corresponding values for `COc1cccc(Nc2ncc3nc(CCc4ccccc4)c(=O)n(Cc4cccs4)c3n2)c1` are 6.31 µM (inconclusive) and 3.16 µM (inconclusive).
Take `Cc1cccc(CS(=O)(=O)Cc2ccc(C(=O)NCc3ccco3)o2)c1`: the AC50 is 7.08 µM (inconclusive) in data set [2], 39.8 µM (inconclusive) in data set [5], 3.55 µM (inconclusive) in data set [1] (read-out: AC50) and 5.01 µM (inconclusive) in data set [3].
For `NCCNC(=S)S`, the AC50 was 6.31 µM (inconclusive) in data set [2] and 3.98 µM (inconclusive) in data set [1] (read-out: AC50).
As for `C=C[C@H](CC(C)C)N(Cc1ccccc1)S(=O)(=O)N(Cc1ccc(OC)cc1)[C@H](C=C)CC(C)C`, in data set [4], the AC50 is 5.78 µM (active).
For `Cn1cccc1C(=O)N1CCC2(CCN(Cc3ccccc3)CC2)CC1`, the AC50 in data set [1] (read-out: AC50) was 39.8 µM (inconclusive).
